Reference: patent US9090593B2, “Bicyclic compounds as Pim inhibitors” (AMGEN INC., priority 2010, dated 2015)

Columns and labels:
[1] = molecular target: T1, Pim-2 stably transfected into the U2OS human osteogenic sarcoma line (Homo sapiens, UniProt Q9P1W9); assay: Pim cell assay, phospho-BAD normalized against total BAD, U2OS stably transfected with Pim-2; assay type: cell-based; conditions: U2OS stably transfected with Pim-2; phospho-BAD normalized against total BAD; 29 min incubation; read-out: Pim2_Cell_IC50_
T1 construct: expressed in transfected cells; host or cells: U2OS human osteogenic sarcoma line
Outline: (§1)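 U2OS cells stably expressing Pim-1 or Pim-2 were plated overnight at 37 °C, then dosed over a 10-point curve (final 0.3% DMSO; DMSO alone as high control). Lysates assayed for phospho- and total BAD by Meso Scale immunoassay; % phosphoprotein = (2×phospho)/(phospho+total)×100.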

[2] = molecular target: T2, Pim-1 stably transfected into the U2OS human osteogenic sarcoma line (Homo sapiens, UniProt P11309); assay: Pim cell assay, phospho-BAD normalized against total BAD, U2OS stably transfected with Pim-1; assay type: cell-based; conditions: U2OS stably transfected with Pim-1; phospho-BAD normalized against total BAD; 29 min incubation; read-out: Pim1_Cell_IC50_
T2 construct: expressed in transfected cells; host or cells: U2OS human osteogenic sarcoma line
Outline: as §1

[3] = molecular target: T3, full length recombinant Pim-1 protein (Homo sapiens, UniProt P11309); assay: Pim-1 enzyme assay (HTRF, phosphorylation of biotinylated-BAD (S112) peptide); assay type: biochemical; conditions: read-out: Pim_1_IC50
T3 construct: by full length recombinant Pim-1, Pim-2, or Pim-3 protein; hexahistidine tag followed by a thrombin cleavage site (N); made in house; host or cells: Sf9 (baculovirus) or E. coli (pET28)
Outline: (§2)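 Full-length human Pim-1 or Pim-2 (His6-tagged, Sf9 or E. coli expressed, Ni and Superdex 75 purified) phosphorylates biotinylated BAD (S112) peptide in 60 mM Hepes pH 7.0, 0.05% BSA, 2 mM DTT. Stopped with 3 mM EDTA; HTRF read with Eu anti-phospho-BAD and streptavidin-APC. IC50 from 4-parameter logistic fit of percent of control.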

[4] = molecular target: T4, full length recombinant Pim-2 protein (Homo sapiens, UniProt Q9P1W9); assay: Pim-2 enzyme assay (HTRF, phosphorylation of biotinylated-BAD (S112) peptide); assay type: biochemical; conditions: read-out: Pim2_IC50
T4 construct: by full length recombinant Pim-1, Pim-2, or Pim-3 protein; hexahistidine tag followed by a thrombin cleavage site (N); made in house; host or cells: Sf9 (baculovirus) or E. coli (pET28)
Outline: as §2

KMS-Cell = assay: KMS cell IC50 (Table 4); assay type: cell-based; conditions: KMS cells

T3 sequence (P11309 whole entry): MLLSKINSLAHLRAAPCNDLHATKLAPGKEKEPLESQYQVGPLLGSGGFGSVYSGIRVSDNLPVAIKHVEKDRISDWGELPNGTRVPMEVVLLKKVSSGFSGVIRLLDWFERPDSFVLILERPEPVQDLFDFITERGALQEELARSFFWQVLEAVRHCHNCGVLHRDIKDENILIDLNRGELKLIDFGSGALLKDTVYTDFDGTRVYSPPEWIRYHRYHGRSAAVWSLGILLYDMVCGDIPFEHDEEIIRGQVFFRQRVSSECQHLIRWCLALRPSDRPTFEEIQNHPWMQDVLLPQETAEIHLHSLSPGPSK
T2 sequence (P11309 whole entry): as above
T1 sequence (Q9P1W9 whole entry): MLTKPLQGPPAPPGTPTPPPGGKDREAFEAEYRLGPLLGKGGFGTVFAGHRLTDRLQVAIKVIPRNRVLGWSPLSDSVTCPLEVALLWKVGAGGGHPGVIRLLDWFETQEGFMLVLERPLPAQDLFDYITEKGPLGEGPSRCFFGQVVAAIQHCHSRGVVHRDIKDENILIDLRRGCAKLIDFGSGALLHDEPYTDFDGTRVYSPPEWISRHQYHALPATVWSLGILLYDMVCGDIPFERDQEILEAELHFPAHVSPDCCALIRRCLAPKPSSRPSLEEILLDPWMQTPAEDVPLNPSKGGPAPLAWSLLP
T4 sequence (Q9P1W9 whole entry): as above

Structure (SMILES) | IC50 [1] [nM] | IC50 [2] [nM] | IC50 [3] [nM] | IC50 [4] [nM] | IC50 (KMS-Cell) [nM]
CN(C)c1nc(-c2c[nH]c3ccc(-c4cncc(C5CC5)n4)cc23)cc(=O)[nH]1 [Example 527] | > 31600 | 354 | 13 | 79 | > 15800
COC(=O)c1ccc2[nH]nc(-c3ccnc(NC4CCNCC4)n3)c2c1 [Example 489] | 4480 | 202 | 2 | 3 | 1690
CC1CCNCC1Oc1cncc(-c2n[nH]c3ccc(-c4c(F)cccc4F)cc23)n1 (single isomer, unassigned) [Example 424] | 2470 | 433 | 1 | 4 | 6280
